Experimental data taken from patent US20240374626A1, “METHODS OF ENHANCING MILK PRODUCTION IN LACTATING MAMMALIAN SUBJECTS” (priority 2023, published 2024).

Columns and labels:
MG alveoli = experiment: Contralateral intraductal injection: milk staining (IHC) integrated density per alveolus; assay type: in vivo, mouse; conditions: Mk-1775 IDI at PD16.5 vs contralateral DMSO, LD5 MGs
Procedure: (§1) Nulliparous analysis was performed using adult (10-12-week-old) female mice. For timed pregnancies and lactation analysis, CD-1 pregnant adult females were obtained from Charles Rivers. Embryos were examined at the time of mammary gland harvesting to confirm pregnancy state. […] Plugged mice were considered to be PD0.5 on the day of the observed plug. All females used in this study were age matched.
(§2) Mice were anesthetized with isoflurane (VetOne, 501017) Prior to intraductal injections, hair was removed from around the nipples using Nair hair remover. Injections into the duct of the nipple were performed with 33 G needles (Hamilton, 7803-05) and a volume of 40 μl per gland. […]
Mammary gland tissue was fixed in 10% neutral buffered formalin (EMD Millipore, MR0458682) at 4° C. overnight. […] Incubation with secondary antibodies [(donkey anti-Rat 647 (Thermo-Invitrogen; A48272) and donkey anti-Rabbit 488 (Thermo-Invitrogen; A32790)] was performed for 2 h at room temperature. Sections were washed with 0.3% triton in PBS for 30 min (×3) at room temperature and mounted using flouromount-G (Southern Biotech, 0100-01). Image acquisition was performed using Zeiss Axio Imager Microscope. Macros were generated to quantify lumen milk integrated density per alveolus using Image J.

Wee1 = experiment: Contralateral intraductal injection: Wee1 expression in whole MG tissue by RT-qPCR; assay type: in vivo, mouse; conditions: IDI of doxorubicin into pregnant MG vs contralateral DMSO
Procedure: as §1, §2
For RNA isolation from FACS purified populations, mammary gland cell suspensions were blocked using Mouse BD Fc Block™ (BD Biosciences) for 10 min. […] Total RNA quality was analyzed by agarose gel electrophoresis and quantified using an ND-1000 spectrophotometer (NanoDrop). cDNA was prepared from 500-1000 ng of total RNA using iScript cDNA synthesis kit (Bio-Rad, 1708841). Quantitative RT-qPCR was performed in triplicates using SsoAdvanced Universal SYBR Green Supermix, (Bio-Rad, 1725272). […]

SMILES | decrease in milk production (IHC, milk integrated density per alveolus) (MG alveoli) | Wee1 expression in whole MG tissue, RT-qPCR (Wee1)
C=CCn1c(=O)c2cnc(Nc3ccc(N4CCN(C)CC4)cc3)nc2n1-c1cccc(C(C)(C)O)n1 [Mk-1775] | 21% | –
COc1cccc2c1C(=O)c1c(O)c3c(c(O)c1C2=O)C[C@@](O)(C(=O)CO)C[C@@H]3O[C@H]1C[C@H](N)[C@H](O)[C@H](C)O1 [doxorubicin] | – | upregulated
